Measurements published in ChEMBL document CHEMBL1139150, “Design of antimicrobial compounds based on peptide structures” (Bioorg Med Chem Lett, 2007).
≈ marks a conversion by molar mass, not a printed value. Peptide text beside a SMILES is read from it.

Columns and labels:
[1] = Induction of erythrocyte lysis at 100 uM; assay type: cell-based; conditions: human, erythrocytes; read-out: Activity
Escherichia coli = assay: Antibacterial activity against Escherichia coli; assay type: functional
Bacillus subtilis = assay: Antibacterial activity against Bacillus subtilis; assay type: functional

| Structure (SMILES) | hemolysis at 100 µM [1] [%] | MIC (Escherichia coli) [µM] | MIC (Bacillus subtilis) [µM] |
| --- | --- | --- | --- |
| N=C(N)NCCCCCNC(=O)[C@H](Cc1c[nH]c2ccccc12)NC(=O)c1cc(C(=O)N[C@@H](Cc2c[nH]c3ccccc23)C(=O)NCCCCCNC(=N)N)cc(C(=O)N[C@@H](Cc2c[nH]c3ccccc23)C(=O)NCCCCCNC(=N)N)c1 | 22.6 | 15.6 (≈ 17.9 µg/mL) | 2 (≈ 2.29 µg/mL) |
| NCCCCCNC(=O)[C@@H](N)Cc1c[nH]c2ccccc12 | < 1 | > 250 | > 250 |
| NCCNC(=O)[C@@H](N)Cc1c[nH]c2ccccc12 | < 1 | > 250 | > 250 |
| N=C(N)NCCNC(=O)[C@H](Cc1c[nH]c2ccccc12)NC(=O)c1cc(C(=O)N[C@@H](Cc2c[nH]c3ccccc23)C(=O)NCCNC(=N)N)cc(C(=O)N[C@@H](Cc2c[nH]c3ccccc23)C(=O)NCCNC(=N)N)c1 | 5.1 | > 125 | 3.9 (≈ 3.98 µg/mL) |
| NCCCCCNC(=O)[C@H](Cc1c[nH]c2ccccc12)NC(=O)c1cc(C(=O)N[C@@H](Cc2c[nH]c3ccccc23)C(=O)NCCCCCN)cc(C(=O)N[C@@H](Cc2c[nH]c3ccccc23)C(=O)NCCCCCN)c1 | 0.4 | 62.5 (≈ 63.8 µg/mL) | 31.3 (≈ 32 µg/mL) |
| NCCNC(=O)[C@H](Cc1c[nH]c2ccccc12)NC(=O)c1cc(C(=O)N[C@@H](Cc2c[nH]c3ccccc23)C(=O)NCCN)cc(C(=O)N[C@@H](Cc2c[nH]c3ccccc23)C(=O)NCCN)c1 | 1.2 | > 125 | 31.3 (≈ 28 µg/mL) |
| O=C(O)c1cc(C(=O)O)cc(C(=O)O)c1 | < 1 | > 250 | > 250 |
| NCCCC[C@@H]1NC(=O)[C@H](CCCCN)NC(=O)[C@H](Cc2ccccc2)NC(=O)[C@H](CCCCN)NC(=O)[C@H](Cc2c[nH]c3ccccc23)NC(=O)[C@H](Cc2c[nH]c3ccccc23)NC1=O (cyclo(FKKWWK)) | 10 | 25 (≈ 22.6 µg/mL) | 25 (≈ 22.6 µg/mL) |
| N=C(N)NCCC[C@@H]1NC(=O)[C@H](CCCNC(=N)N)NC(=O)[C@H](Cc2ccccc2)NC(=O)[C@H](CCCNC(=N)N)NC(=O)[C@H](Cc2c[nH]c3ccccc23)NC(=O)[C@H](Cc2c[nH]c3ccccc23)NC1=O (cyclo(RRWWRF)) | 24 | 6.3 (≈ 6.23 µg/mL) | 3.1 (≈ 3.06 µg/mL) |
